Results taken from patent publication US20240368159A1, “HPK1 DEGRADERS, COMPOSITIONS COMPRISING THE HPK1 DEGRADER, AND METHODS OF USING THE SAME” (BIOFRONT LTD, priority 2021, published 2024).

How the values were obtained:
[1] = tested on: IL-2 production in primary mouse CD3+ T cells; assay: Cytokine measurement: IL-2 production in mouse CD3+ T cells (ELISA); assay type: cell-based; details: T-cell, plate bound anti-CD3, 40 hrs; for fold induction at 1 µM: 1 uM compound, read-out: IL-2 production Fold change (1 uM); for fold induction at 3 µM: 3 uM compound, read-out: IL-2 production Fold change (3 uM)
Method: Anti-CD3 Ab was used to provide signal 1 to stimulate mouse CD3+ T cells. Effect of compound stimulation on T cells was measure by IL2 ELISA. Briefly, anti-CD3 Ab was coated onto plates overnight. Isolated T cells from mouse splenocytes were incubated with plate bound CD3 in the presence and absence of compound for 40 hrs. After incubation, the supernatant was collected and IL2 level in the supernatant was determined by mouse IL2 ELISA kit.

HPK1 p-SLP-76 = HPK1 p-SLP-76 inhibition assay in human PBMC (HTRF); assay type: cell-based; details: 6 h compound, anti-CD3 stimulation 20 min
Summary of the method: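 Human PBMC starved overnight in 0.5% FBS, treated with compound 6 h at 37° C, then stimulated with anti-CD3 (10 ug/mL final) for 20 min. Lysates analysed for phospho-SLP76 by HTRF after overnight detection-antibody incubation at 25° C.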

HPK1 protein [2] = biological target: T1, HPK1 protein (Homo sapiens, UniProt Q92918); assay: HPK1 enzyme inhibition assay (ADP-Glo); assay type: biochemical; details: MBP substrate, ATP, ADP-Glo readout
T1 construct: purchased Signal Chem M23-11G-10
T1 sequence (Q92918 1-346 limits assumed): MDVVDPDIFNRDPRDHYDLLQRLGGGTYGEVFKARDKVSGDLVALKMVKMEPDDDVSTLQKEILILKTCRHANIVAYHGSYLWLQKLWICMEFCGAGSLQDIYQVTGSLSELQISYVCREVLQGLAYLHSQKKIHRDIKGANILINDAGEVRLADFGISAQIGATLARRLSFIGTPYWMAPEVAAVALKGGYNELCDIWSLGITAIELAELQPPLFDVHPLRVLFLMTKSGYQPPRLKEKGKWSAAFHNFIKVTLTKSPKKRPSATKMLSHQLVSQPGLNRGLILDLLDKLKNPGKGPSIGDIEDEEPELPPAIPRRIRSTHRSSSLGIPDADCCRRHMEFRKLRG
Summary of the method: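 Recombinant human HPK1 preincubated with compound 60 min at 25 °C, then reaction with MBP (0.2 ug/ul, 2× stock) and ATP (20 μM, 2× stock) 60 min at 25 °C. ADP formed detected by ADP-Glo after ATP depletion and conversion to ATP; IC50 calculated from signal.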

HPK1 protein [3] = biological target: T2, HPK1 protein (Homo sapiens, UniProt Q92918); assay: HPK1 protein degradation in human PBMC (western blot); assay type: cell-based; details: 18 h incubation
T2 construct: Frozen human PBMC were purchased from Shanghai OribioTech; host or cells: human PBMC
Summary of the method: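 Recovered frozen human PBMC in RPMI1640 exposed to a range of compound concentrations for 18 h. Lysates normalized by BCA and HPK1 level read by western blot with anti-HPK1 polyclonal antibody, β-actin as loading control.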
T2 sequence (Q92918 whole entry): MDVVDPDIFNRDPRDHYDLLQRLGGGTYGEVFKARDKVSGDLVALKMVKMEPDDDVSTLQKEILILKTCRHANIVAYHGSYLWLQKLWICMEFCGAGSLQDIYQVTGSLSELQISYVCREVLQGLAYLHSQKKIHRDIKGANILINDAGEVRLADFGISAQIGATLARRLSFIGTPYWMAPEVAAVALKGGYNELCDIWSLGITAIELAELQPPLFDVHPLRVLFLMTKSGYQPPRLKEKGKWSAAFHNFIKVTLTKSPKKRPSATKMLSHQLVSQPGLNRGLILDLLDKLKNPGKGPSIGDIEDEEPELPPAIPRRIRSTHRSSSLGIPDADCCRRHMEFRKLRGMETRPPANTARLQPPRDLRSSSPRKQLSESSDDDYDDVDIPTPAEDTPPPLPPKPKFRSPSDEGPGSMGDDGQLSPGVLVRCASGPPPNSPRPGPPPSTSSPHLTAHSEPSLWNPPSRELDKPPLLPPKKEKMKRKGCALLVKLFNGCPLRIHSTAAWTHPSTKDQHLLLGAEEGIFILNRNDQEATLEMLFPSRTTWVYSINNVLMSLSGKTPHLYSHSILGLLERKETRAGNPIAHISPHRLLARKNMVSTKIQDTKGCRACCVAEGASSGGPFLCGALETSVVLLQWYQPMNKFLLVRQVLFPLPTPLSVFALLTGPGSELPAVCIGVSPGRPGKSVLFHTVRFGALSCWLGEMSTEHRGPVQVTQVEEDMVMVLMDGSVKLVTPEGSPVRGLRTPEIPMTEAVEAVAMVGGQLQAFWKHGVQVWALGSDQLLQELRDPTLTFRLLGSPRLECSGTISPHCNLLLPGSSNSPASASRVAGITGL

HPK1 protein [4] = biological target: T3, HPK1 protein (Mus musculus, UniProt P70218); assay: HPK1 protein degradation in mouse pan T cell (western blot); assay type: cell-based; details: 18 h incubation
T3 construct: the CD3+ T cell population was isolated from spleenocytes of mice; endogenous in cells; host or cells: primary mouse splenic CD3+ (pan) T cells
T3 sequence (P70218 1-827): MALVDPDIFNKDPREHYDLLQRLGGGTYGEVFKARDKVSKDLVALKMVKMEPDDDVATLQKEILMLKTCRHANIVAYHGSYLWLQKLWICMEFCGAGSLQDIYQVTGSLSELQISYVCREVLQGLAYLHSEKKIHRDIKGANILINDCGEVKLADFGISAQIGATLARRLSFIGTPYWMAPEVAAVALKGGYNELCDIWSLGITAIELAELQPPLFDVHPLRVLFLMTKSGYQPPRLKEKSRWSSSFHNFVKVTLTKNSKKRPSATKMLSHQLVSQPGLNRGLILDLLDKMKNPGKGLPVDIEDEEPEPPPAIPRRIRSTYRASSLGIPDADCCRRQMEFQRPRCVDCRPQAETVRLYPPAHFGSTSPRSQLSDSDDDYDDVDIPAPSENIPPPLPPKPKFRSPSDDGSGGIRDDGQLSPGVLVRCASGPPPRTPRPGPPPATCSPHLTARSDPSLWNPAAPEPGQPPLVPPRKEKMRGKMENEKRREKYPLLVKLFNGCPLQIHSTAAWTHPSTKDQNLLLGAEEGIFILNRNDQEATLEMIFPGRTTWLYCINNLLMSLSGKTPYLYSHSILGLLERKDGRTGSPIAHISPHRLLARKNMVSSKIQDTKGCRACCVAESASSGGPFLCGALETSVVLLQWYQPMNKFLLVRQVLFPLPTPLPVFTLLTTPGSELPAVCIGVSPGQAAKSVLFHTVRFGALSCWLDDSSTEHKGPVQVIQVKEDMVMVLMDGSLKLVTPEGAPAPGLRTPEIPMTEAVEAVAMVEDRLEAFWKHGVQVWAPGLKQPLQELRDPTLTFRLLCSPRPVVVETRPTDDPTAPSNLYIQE
Summary of the method: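 CD3+ pan T cells were isolated from mouse splenocytes and incubated 18 h with a range of compound concentrations. Lysates were normalised by BCA and run on SDS-PAGE. HPK1 was detected by western blot with an anti-human HPK1 polyclonal antibody, with β-actin as loading control.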

Row | Compound | fold induction at 1 µM [1] | fold induction at 3 µM [1] | IC50 (HPK1 p-SLP-76) [nM] | IC50 (HPK1 protein [2]) [nM] | Dmax (HPK1 protein [3]) [%] | Dmax (HPK1 protein [4]) [%]
1 | O=C1CCC(N2C(=O)c3cc(F)c(N4CCN(CCCS(=O)(=O)N5CCN(c6cccc(-c7cnc8[nH]cc(C9CC9)c8c7Cl)c6)C(=O)C5)CC4)cc3C2=O)C(=O)N1 (centres unmarked) [Example 101, 5-(4-(3-((4-(3-(4-chloro-3-cyclopropyl-1H-pyrrolo[2,3-b]pyridin-5-yl)phenyl)-3-oxopiperazin-1-yl)sulfonyl)propyl)piperazin-1-yl)-2-(2,6-dioxopiperidin-3-yl)-6-fluoroisoindoline-1,3-dione] | 1.7 | 3.7 | ≤ 300 | 10 to 100 | 95 | 95
2 | O=C1CCC(N2C(=O)c3ccc(N4CCC(OCC(=O)N5CCN(c6cccc(-c7cnc8[nH]cc(CC(F)F)c8c7Cl)c6)C(=O)C5)CC4)cc3C2=O)C(=O)N1 (centres unmarked) [Example 36] | 1.8 | 3.8 | ≤ 300 | 10 to 100 | 94 | 95
3 | CCc1c[nH]c2ncc(-c3cccc(N4CCN(CCCN5CCC(c6ccc7c(N8CCC(=O)NC8=O)cccc7c6)CC5)CC4=O)c3)c(Cl)c12 [Example 58, 1-(6-(1-(3-(4-(3-(4-chloro-3-ethyl-1H-pyrrolo[2,3-b]pyridin-5-yl)phenyl)-3-oxopiperazin-1-yl)propyl)piperidin-4-yl)naphthalen-1-yl)dihydropyrimidine-2,4 (1H,3H)-dione] | 2.5 | 2 | 300 to 3000 | 10 to 100 | 98 | 90
4 | O=C1CCC(c2ccc(C3CCN(CCCN4CCN(c5cccc(-c6cnc7[nH]cc(C8CC8)c7c6Cl)c5)C(=O)C4)CC3)cc2)C(=O)N1 (centres unmarked) [Example 73, 3-(4-(1-(3-(4-(3-(4-chloro-3-cyclopropyl-1H-pyrrolo[2,3-b]pyridin-5-yl)phenyl)-3-oxopiperazin-1-yl)propyl)piperidin-4-yl)phenyl)piperidine-2,6-dione] | 2 | < 0.5 | ≤ 300 | ≤ 10 | 87 | 95
5 | O=C1CCC(N2Cc3cc(N4CCN(CCCN5CCN(c6cccc(-c7cnc8[nH]cc(C9CC9)c8c7Cl)c6)C(=O)C5)CC4)ccc3C2=O)C(=O)N1 (centres unmarked) [Example 63, 3-(5-(4-(3-(4-(3-(4-chloro-3-cyclopropyl-1H-pyrrolo[2,3-b]pyridin-5-yl)phenyl)-3-oxopiperazin-1-yl)propyl)piperazin-1-yl)-1-oxoisoindolin-2-yl)piperidine-2,6-dione] | 2.1 | 2 | ≤ 300 | ≤ 10 | 90 | –
